Measured values as given in patent US8563714B2, “Bridged spiro [2.4] heptane derivatives as ALX receptor and/or FPRL2 agonists” (Actelion Pharmaceuticals Ltd., priority 2009, dated 2013).

Legend:
[1] = biological target: T1, human FPRL2 (Homo sapiens, UniProt P25089); experiment: Intracellular calcium measurements (FLIPR), agonistic activity in HEK293-hFPRL2-Gα16 cells; assay type: cell-based; conditions: Fluo-4 calcium FLIPR, normalized to GLY14-Humanin 100 nM
T1 construct: expressed in transfected cells; host or cells: HEK293 (HEK293-hFPRL2-Gα16)
T1 sequence (P25089 1-353): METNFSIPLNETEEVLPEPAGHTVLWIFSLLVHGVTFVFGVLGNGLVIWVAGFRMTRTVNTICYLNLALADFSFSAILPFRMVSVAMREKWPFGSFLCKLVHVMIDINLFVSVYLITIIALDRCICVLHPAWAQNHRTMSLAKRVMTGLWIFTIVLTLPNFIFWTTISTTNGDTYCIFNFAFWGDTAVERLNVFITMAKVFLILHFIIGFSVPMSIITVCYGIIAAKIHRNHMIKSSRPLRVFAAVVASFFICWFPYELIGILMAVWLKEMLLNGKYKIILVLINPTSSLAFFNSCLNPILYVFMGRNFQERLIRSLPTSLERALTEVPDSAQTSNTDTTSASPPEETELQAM
Outline: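 Peak values after baseline subtraction are expressed relative to 100 nM Gly14-Humanin; compounds diluted in assay buffer from 10 mM DMSO stocks.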

[2] = biological target: T2, human ALX receptor (Homo sapiens, UniProt P25090); experiment: Intracellular calcium measurements (FLIPR), agonistic activity in HEK293-hALXR-Gα16 cells; assay type: cell-based; conditions: Fluo-4 calcium FLIPR, normalized to WKYMVm 10 nM
T2 construct: expressed in transfected cells; host or cells: HEK293 (HEK293-hALXR-Gα16)
T2 sequence (P25090 1-351): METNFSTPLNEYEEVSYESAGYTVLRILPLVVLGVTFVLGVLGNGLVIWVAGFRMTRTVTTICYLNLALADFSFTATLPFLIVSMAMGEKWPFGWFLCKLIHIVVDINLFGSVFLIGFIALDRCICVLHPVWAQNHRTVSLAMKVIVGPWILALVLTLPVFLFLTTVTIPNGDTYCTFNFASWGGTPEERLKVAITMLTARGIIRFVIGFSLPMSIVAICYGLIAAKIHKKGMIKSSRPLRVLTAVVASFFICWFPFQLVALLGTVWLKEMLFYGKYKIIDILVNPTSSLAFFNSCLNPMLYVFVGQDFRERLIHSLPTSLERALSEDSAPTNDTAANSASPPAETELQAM
Outline: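 HEK293 cells expressing hALXR and Gα16 were loaded with 1 μM Fluo-4 AM and 20 mM HEPES for 60 min at 37°C, then exposed to serially diluted compound. FLIPR fluorescence was read at ex 488/em 540 nm. Baseline-subtracted peak responses were normalized to 10 nM WKYMVm.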

SMILES | EC50 [1] [nM] | EC50 [2] [nM]
Cc1ccc(C)c(CNC(=O)[C@H]2[C@H](C(=O)NCCCCN3CCCC3)[C@H]3C=C[C@@H]2C32CC2)c1 (racemic) [Example 368, (5R*)—N^5-(2,5-Dimethylphenyl-methyl)-(6R*)—N^6-(4-pyrrolidino-butyl)-(4S*,7R*)-[4,7-ethenylene-spiro[2.4]heptane]-5,6-dicarboxamide] | 255 | 11100
Cc1nc(NC(=O)[C@H]2[C@H](C(=O)NCCCCN3CCCC3)[C@H]3C=C[C@@H]2C32CC2)sc1C (racemic) [Example 369, (5R*)—N^5-(4,5-Dimethyl-thiazol-2-yl)-(6R*)—N^6-(4-pyrrolidino-butyl)-(4S*,7R*)-[4,7-ethenylene-spiro[2.4]heptane]-5,6-dicarboxamide] | 204 | > 25000
COc1ccc(C)cc1CNC(=O)[C@H]1[C@H](C(=O)NCCCCN2CCCC2)[C@H]2C=C[C@@H]1C21CC1 (racemic) [Example 370, (5R*)—N^5-(2-Methoxy-5-methylphenyl-methyl)-(6R*)—N^6-(4-pyrrolidino-butyl)-(4S*,7R*)-[4,7-ethenylene-spiro[2.4]heptane]-5,6-dicarboxamide] | 180 | > 25000
O=C(NCCCCN1CCCC1)[C@H]1[C@H](C(=O)NCc2c(F)ccc(F)c2Cl)[C@@H]2C=C[C@H]1C21CC1 (racemic) [Example 371, (5R*)—N^5-(2-Chloro-3,6-difluorophenyl-methyl)-(6R*)—N^6-(4-pyrrolidino-butyl)-(4S*,7R*)-[4,7-ethenylene-spiro[2.4]heptane]-5,6-dicarboxamide] | 271 | > 25000
CC(C)Oc1ccccc1CNC(=O)[C@H]1[C@H](C(=O)NCCCCN2CCCC2)[C@H]2C=C[C@@H]1C21CC1 (racemic) [Example 372, (5R*)—N^5-(2-Isopropoxyphenyl-methyl)-(6R*)—N^6-(4-pyrrolidino-butyl)-(4S*,7R*)-[4,7-ethenylene-spiro[2.4]heptane]-5,6-dicarboxamide] | 389 | > 25000
Cc1ccc(F)c(CNC(=O)[C@H]2[C@H](C(=O)NCCCCN3CCCC3)[C@H]3C=C[C@@H]2C32CC2)c1Cl (racemic) [Example 373, (5R*)—N^5-(2-Chloro-6-fluoro-3-methylphenyl-methyl)-(6R*)—N^6-(4-pyrrolidino-butyl)-(4S*,7R*)-[4,7-ethenylene-spiro[2.4]heptane]-5,6-dicarboxamide] | 478 | > 25000
COc1ccc(CNC(=O)[C@H]2[C@H](C(=O)NCCCCN3CCCC3)[C@H]3C=C[C@@H]2C32CC2)cc1Cl (racemic) [Example 374, (5R*)—N^5-(3-Chloro-4-methoxyphenyl-methyl)-(6R*)—N^6-(4-pyrrolidino-butyl)-(4S*,7R*)-[4,7-ethenylene-spiro[2.4]heptane]-5,6-dicarboxamide] | 237 | 2620
COc1ccc(CNC(=O)[C@H]2[C@H](C(=O)NCCCCN3CCCC3)[C@H]3C=C[C@@H]2C32CC2)cc1OC (racemic) [Example 375, (5R*)—N^5-(3,4-Dimethoxyphenyl-methyl)-(6R*)—N^6-(4-pyrrolidino-butyl)-(4S*,7R*)-[4,7-ethenylene-spiro[2.4]heptane]-5,6-dicarboxamide] | 443 | 9050
COc1ccc(CNC(=O)[C@H]2[C@H](C(=O)NCCCCN3CCCC3)[C@H]3C=C[C@@H]2C32CC2)c(OC)c1 (racemic) [Example 376, (5R*)—N^5-(2,4-Dimethoxyphenyl-methyl)-(6R*)—N^6-(4-pyrrolidino-butyl)-(4S*,7R*)-[4,7-ethenylene-spiro[2.4]heptane]-5,6-dicarboxamide] | 334 | 10300
COc1ccc(CCNC(=O)[C@H]2[C@H](C(=O)NCCCCN3CCCC3)[C@H]3C=C[C@@H]2C32CC2)cc1OC (racemic) [Example 377, (5R*)—N^5-(2-(3,4-Dimethoxyphenyl)ethyl)-(6R*)—N^6-(4-pyrrolidino-butyl)-(4S*,7R*)-[4,7-ethenylene-spiro[2.4]heptane]-5,6-dicarboxamide] | 417 | > 25000
COc1ccc(CCNC(=O)[C@H]2[C@H](C(=O)NCCCCN3CCCC3)[C@H]3C=C[C@@H]2C32CC2)cc1 (racemic) [Example 378, (5R*)—N^5-(2-(4-Methoxyphenyl)ethyl)-(6R*)—N^6-(4-pyrrolidino-butyl)-(4S*,7R*)-[4,7-ethenylene-spiro[2.4]heptane]-5,6-dicarboxamide] | 74 | 8610
O=C(NCCCCN1CCCC1)[C@H]1[C@H](C(=O)NCCc2ccc(Br)cc2)[C@@H]2C=C[C@H]1C21CC1 (racemic) [Example 379, (5R*)—N^5-(2-(4-Bromophenyl)ethyl)-(6R*)—N^6-(4-pyrrolidino-butyl)-(4S*,7R*)-[4,7-ethenylene-spiro[2.4]heptane]-5,6-dicarboxamide] | 6.6 | 8810
Cc1ccc(CCNC(=O)[C@H]2[C@H](C(=O)NCCCCN3CCCC3)[C@H]3C=C[C@@H]2C32CC2)cc1C (racemic) [Example 380, (5R*)—N^5-(2-(3,4-Dimethylphenyl)ethyl)-(6R*)—N^6-(4-pyrrolidino-butyl)-(4S*,7R*)-[4,7-ethenylene-spiro[2.4]heptane]-5,6-dicarboxamide] | 103 | > 25000
O=C(NCCCCN1CCCC1)[C@H]1[C@H](C(=O)NCCc2ccc3c(c2)OCO3)[C@@H]2C=C[C@H]1C21CC1 (racemic) [Example 383, (5R*)—N^5-(2-(Benzo[d][1,3]dioxol-5-yl)ethyl)-(6R*)—N^6-(4-pyrrolidino-butyl)-(4S*,7R*)-[4,7-ethenylene-spiro[2.4]heptane]-5,6-dicarboxamide] | 29 | 7680
COc1ccc(CCNC(=O)[C@H]2[C@H](C(=O)NCCCCN3CCCC3)[C@H]3C=C[C@@H]2C32CC2)cc1Br (racemic) [Example 384, (5R*)—N^5-(2-(3-Bromo-4-methoxyphenyl)ethyl)-(6R*)—N^6-(4-pyrrolidino-butyl)-(4S*,7R*)-[4,7-ethenylene-spiro[2.4]heptane]-5,6-dicarboxamide] | 72 | 10300
Cc1ccc(CCNC(=O)[C@H]2[C@H](C(=O)NCCCCN3CCCC3)[C@H]3C=C[C@@H]2C32CC2)c(C)c1 (racemic) [Example 385, (5R*)—N^5-(2-(2,4-Dimethylphenyl)ethyl)-(6R*)—N^6-(4-pyrrolidino-butyl)-(4S*,7R*)-[4,7-ethenylene-spiro[2.4]heptane]-5,6-dicarboxamide] | 27 | > 25000
CNCCNC(=O)[C@H]1[C@H](C(=O)NCc2nc(C(C)=O)cs2)[C@@H]2C=C[C@H]1C21CC1 (racemic) [Example 396, (5R*)—N^5-[(4-Acetyl-thiazol-2-yl)methyl]-(6R*)—N^6-(2-methylamino-ethyl)-(4S*,7R*)-[4,7-ethenylene-spiro[2.4]heptane]-5,6-dicarboxamide] | 872 | 1040
O=C(NCCCCN1CCCC1)[C@H]1[C@H](C(=O)Nc2ccc(C(F)(F)F)nc2)[C@@H]2C=C[C@H]1C21CC1 (racemic) [Example 422, (5R*)—N^5-(2-Trifluoromethyl-pyridin-5-yl)-(6R*)—N^6-(4-pyrrolidin-1-yl-butyl)-(4S*,7R*)-[4,7-ethenylene-spiro[2.4]heptane]-5,6-dicarboxamide] | 99 | 11
NCCCCNC(=O)[C@H]1[C@H](C(=O)Nc2ccc(Br)cc2)[C@@H]2C=C[C@H]1C21CC1 (relative stereo) [Example 5, (5R*)—N^5-(4-Bromophenyl)-(6R*)—N^6-(4-amino-butyl)-(4S*,7R*)-[4,7-ethenylene-spiro[2.4]heptane]-5,6-dicarboxamide] | 1160 | 0.34
Cc1nc(CCNC(=O)[C@H]2[C@H](C(=O)Nc3ccc(Br)cc3)[C@@H]3C=C[C@H]2C32CC2)[nH]c1C (relative stereo) [Example 64, (5R*)—N^5-(4-Bromophenyl)-(6R*)—N^6-(2-(4,5-dimethyl-1H-imidazol-2-yl)-ethyl)-(4S*,7R*)-[4,7-ethenylene-spiro[2.4]heptane]-5,6-dicarboxamide] | 68 | 19
